Here are results for eleven molecules from ChEMBL document CHEMBL1201862, “PubChem BioAssay data set” (2004).

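Five concentrations, 48 hours, 96-well plates. At the GI50, growth is halved.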 Calls of active or inactive are those of the source. Cut-off read from the data, not from the text of the source: active = GI50 up to about 1.1 µM and inactive = higher.

Among the test systems are OVCAR-3; SNB-75; U-251; SF-539; RXF 393; MDA-MB-231; HCT-116; OVCAR-5; HCT-15; SR; TK-10; UACC-62; SK-MEL-2; UACC-257; HCC 2998; SF-295; IGROV-1; MOLT-4; OVCAR-4; NCI-H226.
Assay in all cases: NCI anticancer screen, dose series, 48 h

In the case of `NC(=O)C(=CNC(=S)Nc1ccc(Cl)c(Cl)c1)C(N)=O`, the GI50 with OVCAR-3 was > 100 µM (inactive); in the assay on SNB-75, > 59.6 µM (inactive); in the assay with U-251, > 56 µM (inactive); in the assay with SF-539 it was 26.7 µM (inactive); with RXF 393 it was > 49.9 µM (inactive); with MDA-MB-231, > 100 µM (inactive). Also, the GI50 in the assay on HCT-116 was > 78.2 µM (inactive); with OVCAR-5, > 100 µM (inactive); in the assay on HCT-15 it was 45.1 µM; with SR, > 71.3 µM (inactive); with TK-10, > 77.8 µM (inactive); with UACC-62 it was 49.8 µM (inactive). In addition, the GI50 is > 81.3 µM (inactive) in the assay on SK-MEL-2; > 100 µM (inactive) in the assay with UACC-257; 26.8 µM (inactive) in the assay with HCC 2998; > 85.7 µM (inactive) with SF-295; 92.7 µM (inactive) in the assay with IGROV-1; 48.3 µM (inactive) in the assay on MOLT-4. Further, the GI50 was 46 µM (inactive) with OVCAR-4 and 0.374 µM (active) in the assay with NCI-H226.
As to `CCN(CCCl)c1cc(CN(C)C)cc(NC(=O)c2ccc(C(=O)Nc3cccc(N(CCCl)NN)c3)cc2)c1`, the GI50 in the assay on SNB-75 was 0.0336 µM (active); in the assay on U-251, 0.0101 µM (active); in the assay with SF-539, 0.16 µM (active); in the assay with RXF 393 it was 0.0285 µM (active); in the assay on MDA-MB-231, 0.185 µM (active); in the assay on HCT-116, 0.0277 µM (active). Besides, the GI50 with OVCAR-5 is 0.182 µM (active); in the assay with HCT-15 it was 0.455 µM; with SR, < 0.01 µM (active); in the assay on TK-10, 0.296 µM (active); with UACC-62 it was < 0.01 µM (active); in the assay on SK-MEL-2, 0.0521 µM (active). In addition, the GI50 in the assay on UACC-257 was 0.174 µM (active); in the assay on HCC 2998 it was 0.0546 µM (active); in the assay on SF-295, 0.0428 µM (active); in the assay with IGROV-1 it was 0.0225 µM (active); in the assay on MOLT-4, < 0.01 µM (active); with OVCAR-4, 0.0136 µM (active). Moreover, in the assay with NCI-H226, the GI50 is 0.145 µM (active).
`C#CCOC(=O)C(N)CC(N)=O` (stereo not drawn): the GI50 in the assay on OVCAR-3, in the assay with SNB-75, in the assay with U-251, in the assay with SF-539, with RXF 393 and in the assay on MDA-MB-231 was > 100 µM (inactive) throughout. In addition, the GI50 in the assay on HCT-116 was > 100 µM (inactive); in the assay on OVCAR-5, > 100 µM (inactive); in the assay with HCT-15, more than 100 µM; in the assay with SR, > 100 µM (inactive); with TK-10 it was > 100 µM (inactive); in the assay on UACC-62 it was > 100 µM (inactive). Moreover, the GI50 with SK-MEL-2, in the assay with UACC-257, with HCC 2998, with SF-295, in the assay with IGROV-1 and with MOLT-4 was > 100 µM (inactive) in each case. Further, the GI50 with OVCAR-4 and in the assay with NCI-H226 was > 100 µM (inactive) throughout.
As for `COc1cc(O)c2c(c1)C(O)C(O)CC1OC1C(=O)/C=C/CC(C)OC2=O` (stereo not drawn), the GI50 in the assay with OVCAR-3 is 2.74 µM (inactive); in the assay with SNB-75, 6.65 µM (inactive); in the assay on U-251, 8.18 µM (inactive); with SF-539, 3.99 µM (inactive); in the assay on RXF 393 it was 0.982 µM (active); in the assay on MDA-MB-231, 3.86 µM (inactive). Besides, the GI50 was 1.11 µM (active) with HCT-116; 12.2 µM (inactive) in the assay on OVCAR-5; 2.93 µM in the assay with HCT-15; 2.7 µM (inactive) with SR; 2.28 µM (inactive) with TK-10; 0.0904 µM (active) with UACC-62. Also, the GI50 in the assay with SK-MEL-2 was 2.72 µM (inactive); with UACC-257, 0.0849 µM (active); in the assay with HCC 2998, 6.34 µM (inactive); in the assay with SF-295 it was 15.6 µM (inactive); with IGROV-1, 2.48 µM (inactive); in the assay with MOLT-4 it was 2.03 µM (inactive). Moreover, the GI50 in the assay on OVCAR-4 was 3.27 µM (inactive); with NCI-H226, 12.9 µM (inactive).
As for `O=C(NCCCl)Nc1ccccc1`, the GI50 with OVCAR-3, in the assay with SNB-75, in the assay on U-251, with RXF 393, in the assay with MDA-MB-231 and with HCT-116 was > 100 µM (inactive) each time. Also, the GI50 with OVCAR-5 is > 100 µM (inactive); in the assay on HCT-15, more than 100 µM; with SR it was > 100 µM (inactive); in the assay on UACC-62 it was > 100 µM (inactive); with SK-MEL-2, > 100 µM (inactive); in the assay with UACC-257, > 100 µM (inactive). Besides, the GI50 with HCC 2998, in the assay with SF-295, in the assay on IGROV-1, in the assay on MOLT-4, in the assay on OVCAR-4 and in the assay on NCI-H226 was > 100 µM (inactive) each time.
Turning to `C=CC(Br)(CBr)CCC1OC1(C)C` (stereo not drawn), the GI50 with OVCAR-3 is 19.5 µM (inactive); with SNB-75, 17.2 µM (inactive); with U-251, 17 µM (inactive); in the assay with SF-539 it was 19.5 µM (inactive); in the assay with RXF 393 it was 9.23 µM (inactive); in the assay with MDA-MB-231, 11.8 µM (inactive). For the same molecule, the GI50 was 17 µM (inactive) in the assay with HCT-116; 18.9 µM (inactive) in the assay on OVCAR-5; 26.9 µM (inactive) with SR; 20.2 µM (inactive) in the assay with TK-10; 15.1 µM (inactive) in the assay on SK-MEL-2; 14.6 µM (inactive) in the assay with UACC-257. Further, the GI50 in the assay on HCC 2998 is 18.9 µM (inactive); in the assay with SF-295, 16.4 µM (inactive); in the assay on IGROV-1 it was 13.2 µM (inactive); in the assay with MOLT-4 it was 16.7 µM (inactive); in the assay with OVCAR-4, 16.3 µM (inactive); with NCI-H226, 19.8 µM (inactive).
On to `N#C[BH2-][n+]1cn(C2CC(O)C(COP(=O)(O)OC3CC(n4c[n+]([BH2-]C#N)c5c(=O)[nH]c(N)nc54)OC3CO)O2)c2nc(N)[nH]c(=O)c21` (stereo not drawn), for which the GI50 with OVCAR-3, with SNB-75, in the assay with U-251, with SF-539, in the assay on RXF 393 and with MDA-MB-231 was > 100 µM (inactive) in each case. In addition, the GI50 was > 100 µM (inactive) in the assay with HCT-116; > 100 µM (inactive) in the assay with OVCAR-5; more than 100 µM in the assay with HCT-15; > 100 µM (inactive) in the assay with SR; > 100 µM (inactive) in the assay with UACC-62; > 100 µM (inactive) in the assay with SK-MEL-2. The GI50 in the assay with HCC 2998, with SF-295, in the assay with IGROV-1, in the assay on MOLT-4, in the assay with OVCAR-4 and with NCI-H226 was > 100 µM (inactive) each time.
Turning to `Cc1cccc2c1C(=O)[C@](C)([C@]1(C)Nc3cccc(C)c3C1=O)N2`, the GI50 is 29.7 µM (inactive) in the assay with OVCAR-3; 11 µM (inactive) in the assay with SNB-75; 60.3 µM (inactive) with U-251; 29 µM (inactive) in the assay with SF-539; 54.1 µM (inactive) in the assay with RXF 393; 37.1 µM (inactive) in the assay on MDA-MB-231. Also, the GI50 with HCT-116 was 56.6 µM (inactive); with OVCAR-5, 24.3 µM (inactive); in the assay on HCT-15, 18.2 µM; in the assay on SR it was 17.7 µM (inactive); in the assay with UACC-62, 28.1 µM (inactive); in the assay with SK-MEL-2 it was 24 µM (inactive). The GI50 was 30.8 µM (inactive) with UACC-257; 31.9 µM (inactive) in the assay with HCC 2998; 20.8 µM (inactive) in the assay with SF-295; 33.5 µM (inactive) in the assay on IGROV-1; 23.3 µM (inactive) in the assay with MOLT-4; 47.6 µM (inactive) in the assay with OVCAR-4. Moreover, in the assay with NCI-H226, the GI50 was 33 µM (inactive).
With `Cc1cccc2c1CC1(Cc3c(C)cccc3C1=O)C2=O`, the GI50 in the assay with OVCAR-3, in the assay with SNB-75, in the assay on U-251, in the assay with SF-539, with RXF 393 and in the assay with MDA-MB-231 was > 100 µM (inactive) throughout. Also, the GI50 in the assay with HCT-116 was > 100 µM (inactive); in the assay on OVCAR-5, > 100 µM (inactive); in the assay on HCT-15, more than 100 µM; in the assay with SR it was > 100 µM (inactive); in the assay with TK-10 it was > 100 µM (inactive); in the assay on SK-MEL-2 it was > 100 µM (inactive). In addition, the GI50 with UACC-257, in the assay with HCC 2998, with SF-295, in the assay with IGROV-1, with MOLT-4 and in the assay with OVCAR-4 was > 100 µM (inactive) throughout.
As to `CC1CCc2sc3nc(S)n(C)c(=O)c3c2C1` (stereo not drawn), the GI50 was 22.4 µM (inactive) in the assay on OVCAR-3; 35.9 µM (inactive) in the assay with SNB-75; 41.8 µM (inactive) in the assay with U-251; 57.9 µM (inactive) in the assay on RXF 393; 36.7 µM (inactive) in the assay with MDA-MB-231; 34.5 µM (inactive) in the assay on HCT-116. Moreover, the GI50 is 73.1 µM (inactive) with OVCAR-5; 39.5 µM with HCT-15; 34 µM (inactive) with SR; 63 µM (inactive) in the assay on TK-10; 33.7 µM (inactive) with UACC-62; 40.4 µM (inactive) in the assay on SK-MEL-2. Besides, the GI50 is 35.3 µM (inactive) with UACC-257; 22.2 µM (inactive) in the assay with HCC 2998; 31.1 µM (inactive) in the assay with SF-295; 37.4 µM (inactive) with IGROV-1; 41.4 µM (inactive) in the assay with MOLT-4; 35.2 µM (inactive) with OVCAR-4. In the assay with NCI-H226, the GI50 was 26.7 µM (inactive).
Take `CC1=CC(=O)C2=C(C)CCC3C(C)C(=O)OC3C12` (stereo not drawn): the GI50 in the assay with OVCAR-3, in the assay on U-251, in the assay with SF-539, in the assay on RXF 393, in the assay with MDA-MB-231 and in the assay with HCT-116 was > 100 µM (inactive) throughout. In addition, the GI50 is > 100 µM (inactive) in the assay with OVCAR-5; more than 100 µM with HCT-15; 48 µM (inactive) in the assay on SR; > 100 µM (inactive) with TK-10; > 100 µM (inactive) in the assay on UACC-62; > 100 µM (inactive) in the assay with SK-MEL-2. For the same molecule, the GI50 in the assay with UACC-257, in the assay with HCC 2998, in the assay on SF-295, in the assay with IGROV-1, in the assay with MOLT-4 and in the assay with OVCAR-4 was > 100 µM (inactive) each time. Besides, in the assay on NCI-H226, the GI50 was > 100 µM (inactive).
